Data: patent US11045507B2, “Bifidobacterium animalis AMT30 strain and the composition containing the strain of Bifidobacterium animalis AMT30” (priority 2019, dated 2021)

Test system: Bifidobacterium animalis AMT30
Assay: Ability of Bifidobacterium animalis AMT30 to grow in the presence of selected antibiotics (shared cultures, Garche's liquid medium)
Assay type: cell-based
Conditions: for growth of AMT30 in the presence of the antibiotic (in words): 24 h shared culture, relative to control culture or inoculum; for The number of B. animalis AMT30 after 24 hours of incubation: inoculum AMT30 4.9 × 10^6 cfu/ml, antibiotic at concentration corresponding to the animal dose per kg b.w., control without antibiotic 2.4 × 10^9
Procedure: Studies on the ability to grow of Bifidobacterium animalis AMT30 in the presence on 20 selected antibiotics were performed using shared cultures method. For this purpose Garche's liquid medium was inoculated with both Bifidobacterium animalis AMT30 in an amount of 4.9×10^6 colony forming units/ml and one of 20 antibiotics in concentration corresponding to an antibiotic dose used in animal treatment per kilogram of body weight. The culture was carried out in three parallel tubes under anaerobic conditions at 37° C. for 24 hours. In addition, parallel control culture of the studied strain without presence of selected antibiotics was carried out. The number of the live cells was determined directly after inoculation and after 24 hours. Incubation of bacteria on Petri dishes was carried out at 37° C. for 48 hours under anaerobic conditions (sealed jar with GasPack AN0025A cartridge, Oxoid).

Compound	growth of AMT30 in the presence of the antibiotic (in words)	The number of B. animalis AMT30 after 24 hours of incubation
COC(=O)Nc1nc2cc(C(=O)c3ccc(F)cc3)ccc2[nH]1 [Flubendazole]	Outstanding activity to multiply	
CC[C@H]1OC(=O)C[C@@H](O)[C@H](C)[C@@H](O[C@@H]2O[C@H](C)[C@@H](O)[C@H](N(C)C)[C@H]2O)[C@@H](CCN2C[C@H](C)C[C@H](C)C2)C[C@@H](C)C(=O)/C=C/C(C)=C/[C@@H]1CO[C@@H]1O[C@H](C)[C@@H](O)[C@@H](OC)[C@H]1OC [Tilmicosin]	remained at the level of inoculum	
CCCc1ncc(C[n+]2ccccc2C)c(N)n1 [Amprolium]	Outstanding activity to multiply	
Nc1ccc(S(=O)(=O)[N-]c2cncc(Cl)n2)cc1.[Na+] [Sodium sulfachloropyrazine]	Outstanding activity to multiply	2.4 × 10^9 cfu/ml
CC[C@H]1OC(=O)C[C@@H](OC(C)=O)[C@H](C)[C@@H](O[C@@H]2O[C@H](C)[C@@H](O[C@H]3C[C@@](C)(O)[C@@H](OC(=O)CC(C)C)[C@H](C)O3)[C@H](N(C)C)[C@H]2O)[C@@H](CC=O)C[C@@H](C)C(=O)/C=C/C(C)=C/[C@@H]1CO[C@@H]1O[C@H](C)[C@@H](O)[C@@H](OC)[C@H]1OC [Tylvalosin]		3.2 × 10^5 cfu/ml
Colistin	Outstanding activity to multiply	1.9 × 10^9 cfu/ml
c1ccc([C@H]2CN3CCSC3=N2)cc1 [Levamisole]	Outstanding activity to multiply	
Cc1cc(-n2c(=O)[nH]c(=O)n(C)c2=O)ccc1Oc1ccc(SC(F)(F)F)cc1 [Toltrazuril]	Outstanding activity to multiply	
Neomycin	Outstanding activity to multiply	3.3 × 10^7 cfu/ml
CC[C@H]1OC(=O)C[C@@H](O)[C@H](C)[C@@H](O[C@@H]2O[C@H](C)[C@@H](O[C@H]3C[C@@](C)(O)[C@@H](O)[C@H](C)O3)[C@H](N(C)C)[C@H]2O)[C@@H](CC=O)C[C@@H](C)C(=O)/C=C/C(C)=C/[C@@H]1CO[C@@H]1O[C@H](C)[C@@H](O)[C@@H](OC)[C@H]1OC [Tylosin]	remained at the level of inoculum	
